Test results reported in ChEMBL document CHEMBL1275453, “Resistance trends of the Bacteroides fragilis group over a 10-year period, 1997 to 2006, in Madrid, Spain” (2008).
Converted amounts (≈) assume the structure as drawn.

How the values were obtained:
Assay type in all cases: functional
[1] = tested on: Phocaeicola vulgatus; test: Antibacterial activity against Bacteroides vulgatus isolate by agar dilution method
[2] = tested on: Bacteroides ovatus; test: Antibacterial activity against Bacteroides ovatus assessed as percent resistant isolates by agar dilution method
[3] = tested on: Bacteroides fragilis; test: Antibacterial activity against Bacteroides fragilis isolate by agar dilution method
[4] = tested on: Parabacteroides distasonis; test: Antibacterial activity against Bacteroides distasonis assessed as percent resistant isolates by agar dilution method
[5] = tested on: Bacteroides uniformis; test: Antibacterial activity against Bacteroides uniformis assessed as percent resistant isolates by agar dilution method
[6] = tested on: Bacteroides caccae; test: Antibacterial activity against Bacteroides caccae isolate by agar dilution method
[7] = tested on: Bacteroides thetaiotaomicron; test: Antibacterial activity against Bacteroides thetaiotaomicron isolate by agar dilution method
[8] = tested on: Bacteroides caccae; test: Antibacterial activity against Bacteroides caccae assessed as percent resistant isolates by agar dilution method
[9] = tested on: Bacteroides uniformis; test: Antibacterial activity against Bacteroides uniformis isolate by agar dilution method
[10] = tested on: Bacteroides thetaiotaomicron; test: Antibacterial activity against Bacteroides thetaiotaomicron assessed as percent resistant isolates by agar dilution method
[11] = tested on: Bacteroides sp.; test: Antibacterial activity against Bacteroides spp. isolate by agar dilution method
[12] = tested on: Bacteroides ovatus; test: Antibacterial activity against Bacteroides ovatus isolate by agar dilution method
[13] = tested on: Bacteroides stercoris; test: Antibacterial activity against Bacteroides stercoris assessed as percent resistant isolates by agar dilution method; conditions: pooled result: one value given for 4 cell lines, strains, targets or settings
[14] = tested on: Bacteroides eggerthii; test: Antibacterial activity against Bacteroides eggerthii isolate by agar dilution method
[15] = tested on: Phocaeicola vulgatus; test: Antibacterial activity against Bacteroides vulgatus assessed as percent resistant isolates by agar dilution method
[16] = tested on: Parabacteroides distasonis; test: Antibacterial activity against Bacteroides distasonis isolate by agar dilution method
[17] = tested on: Parabacteroides merdae; test: Antibacterial activity against Bacteroides merdae isolate by agar dilution method
[18] = tested on: Bacteroides stercoris; test: Antibacterial activity against Bacteroides stercoris isolate by agar dilution method
[19] = tested on: Bacteroides fragilis; test: Antibacterial activity against Bacteroides fragilis assessed as percent resistant isolates by agar dilution method
[20] = tested on: Phocaeicola vulgatus; test: Antibacterial activity against Bacteroides vulgatus assessed as percent resistant isolates by agar dilution method in presence of Tazobactam
[21] = tested on: Phocaeicola vulgatus; test: Antibacterial activity against Bacteroides vulgatus isolate by agar dilution method in presence of Tazobactam
[22] = tested on: Parabacteroides distasonis; test: Antibacterial activity against Bacteroides distasonis assessed as percent resistant isolates by agar dilution method in presence of Tazobactam
[23] = tested on: Bacteroides stercoris; test: Antibacterial activity against Bacteroides stercoris assessed as percent resistant isolates by agar dilution method in presence of Tazobactam
[24] = tested on: Bacteroides eggerthii; test: Antibacterial activity against Bacteroides eggerthii assessed as percent resistant isolates by agar dilution method in presence of Tazobactam
[25] = tested on: Parabacteroides distasonis; test: Antibacterial activity against Bacteroides distasonis isolate by agar dilution method in presence of Tazobactam
[26] = tested on: Bacteroides thetaiotaomicron; test: Antibacterial activity against Bacteroides thetaiotaomicron assessed as percent resistant isolates by agar dilution me in presence of Tazobactam thod
[27] = tested on: Bacteroides ovatus; test: Antibacterial activity against Bacteroides ovatus isolate by agar dilution method in presence of Tazobactam
[28] = tested on: Bacteroides caccae; test: Antibacterial activity against Bacteroides caccae assessed as percent resistant isolates by agar dilution method in presence of Tazobactam
[29] = tested on: Bacteroides fragilis; test: Antibacterial activity against Bacteroides fragilis isolate by agar dilution method in presence of Tazobactam
[30] = tested on: Bacteroides uniformis; test: Antibacterial activity against Bacteroides uniformis isolate by agar dilution method in presence of Tazobactam
[31] = tested on: Bacteroides caccae; test: Antibacterial activity against Bacteroides caccae isolate by agar dilution method in presence of Tazobactam
[32] = tested on: Parabacteroides merdae; test: Antibacterial activity against Bacteroides merdae isolate by agar dilution method in presence of Tazobactam
[33] = tested on: Bacteroides ovatus; test: Antibacterial activity against Bacteroides ovatus assessed as percent resistant isolates by agar dilution method in presence of Tazobactam
[34] = tested on: Bacteroides sp.; test: Antibacterial activity against Bacteroides spp. assessed as percent resistant isolates by agar dilution method in presence of Tazobactam
[35] = tested on: Bacteroides thetaiotaomicron; test: Antibacterial activity against Bacteroides thetaiotaomicron isolate by agar dilution method in presence of Tazobactam
[36] = tested on: Bacteroides fragilis; test: Antibacterial activity against Bacteroides fragilis assessed as percent resistant isolates by agar dilution method in presence of Tazobactam
[37] = tested on: Bacteroides sp.; test: Antibacterial activity against Bacteroides spp. isolate by agar dilution method in presence of Tazobactam
[38] = tested on: Bacteroides eggerthii; test: Antibacterial activity against Bacteroides eggerthii isolate by agar dilution method in presence of Tazobactam
[39] = tested on: Bacteroides uniformis; test: Antibacterial activity against Bacteroides uniformis assessed as percent resistant isolates by agar dilution method in presence of Tazobactam
[40] = tested on: Parabacteroides merdae; test: Antibacterial activity against Bacteroides merdae assessed as percent resistant isolates by agar dilution method in presence of Tazobactam
[41] = tested on: Bacteroides stercoris; test: Antibacterial activity against Bacteroides stercoris isolate by agar dilution method in presence of Tazobactam

For `C[C@@H](O)[C@H]1C(=O)N2C(C(=O)O)=C(SCCNC=N)C[C@H]12` [IMIPENEM ANHYDROUS], the MIC50 [1] was 0.5 µg/mL (≈ 1.67 µM), the MIC90 [1] was 2 µg/mL (≈ 6.68 µM) and the Activity [2] was 0%. The MIC50 [3] was 0.25 µg/mL (≈ 0.835 µM), the MIC90 [3] was 1 µg/mL (≈ 3.34 µM) and the Activity [4] was 0%. For the same compound, the Activity [5] was 0%, the MIC50 [6] was 0.5 µg/mL (≈ 1.67 µM) and the MIC90 [6] was 2 µg/mL (≈ 6.68 µM). The MIC50 [7] was 0.5 µg/mL (≈ 1.67 µM), the MIC90 [7] was 2 µg/mL (≈ 6.68 µM) and the Activity [8] was 0%. It also gave an MIC50 [9] of 0.25 µg/mL (≈ 0.835 µM), an MIC90 [9] of 2 µg/mL (≈ 6.68 µM) and an Activity [10] of 0.5%. The MIC50 [11] was 0.25 µg/mL (≈ 0.835 µM), the MIC90 [11] was 2 µg/mL (≈ 6.68 µM) and the MIC50 [12] was 0.25 µg/mL (≈ 0.835 µM). For the same compound, the MIC90 [12] was 2 µg/mL (≈ 6.68 µM), the Activity [13] was 0% and the MIC50 [14] was 0.25 µg/mL (≈ 0.835 µM). For the same compound, the MIC90 [14] was 2 µg/mL (≈ 6.68 µM), the Activity [15] was 0% and the MIC50 [16] was 1 µg/mL (≈ 3.34 µM). For the same compound, the MIC90 [16] was 1 µg/mL (≈ 3.34 µM), the MIC50 [17] was 0.25 µg/mL (≈ 0.835 µM) and the MIC90 [17] was 2 µg/mL (≈ 6.68 µM). It also gave an MIC50 [18] of 0.25 µg/mL (≈ 0.835 µM), an MIC90 [18] of 2 µg/mL (≈ 6.68 µM) and an Activity [19] of 0.6%.

Compound `Cc1ncc([N+](=O)[O-])n1CCO` [METRONIDAZOLE] has an MIC50 [1] of 1 µg/mL (≈ 5.84 µM), an MIC90 [1] of 2 µg/mL (≈ 11.7 µM) and an Activity [2] of 0%. For the same compound, the MIC50 [3] was 1 µg/mL (≈ 5.84 µM), the MIC90 [3] was 2 µg/mL (≈ 11.7 µM) and the Activity [4] was 0%. For the same compound, the Activity [5] was 0%, the MIC50 [6] was 1 µg/mL (≈ 5.84 µM) and the MIC90 [6] was 2 µg/mL (≈ 11.7 µM). The MIC50 [7] was 1 µg/mL (≈ 5.84 µM), the MIC90 [7] was 2 µg/mL (≈ 11.7 µM) and the Activity [8] was 0%. The MIC50 [9] was 1 µg/mL (≈ 5.84 µM), the MIC90 [9] was 2 µg/mL (≈ 11.7 µM) and the Activity [10] was 0%. For the same compound, the MIC50 [11] was 0.5 µg/mL (≈ 2.92 µM), the MIC90 [11] was 2 µg/mL (≈ 11.7 µM) and the MIC50 [12] was 1 µg/mL (≈ 5.84 µM). It also gave an MIC90 [12] of 2 µg/mL (≈ 11.7 µM), an Activity [13] of 0% and an MIC50 [14] of 0.5 µg/mL (≈ 2.92 µM). For the same compound, the MIC90 [14] was 2 µg/mL (≈ 11.7 µM), the Activity [15] was 0% and the MIC50 [16] was 1 µg/mL (≈ 5.84 µM). For the same compound, the MIC90 [16] was 2 µg/mL (≈ 11.7 µM), the MIC50 [17] was 0.5 µg/mL (≈ 2.92 µM) and the MIC90 [17] was 2 µg/mL (≈ 11.7 µM). The MIC50 [18] was 0.5 µg/mL (≈ 2.92 µM), the MIC90 [18] was 2 µg/mL (≈ 11.7 µM) and the Activity [19] was 0%.

With `CCN1CCN(C(=O)N[C@@H](C(=O)N[C@@H]2C(=O)N3[C@@H]2SC(C)(C)[C@@H]3C(=O)O)c2ccccc2)C(=O)C1=O` [PIPERACILLIN] the Activity [20] was 0%, the MIC50 [21] was 8 µg/mL and the MIC90 [21] was 32 µg/mL. It also gave an Activity [22] of 0%, an Activity [23] of 0% and an Activity [24] of 0%. For the same compound, the MIC50 [25] was 16 µg/mL, the MIC90 [25] was 16 µg/mL and the Activity [26] was 3.3%. It also gave an MIC50 [27] of 8 µg/mL, an MIC90 [27] of 16 µg/mL and an Activity [28] of 2.2%. It also gave an MIC50 [29] of 1 µg/mL, an MIC90 [29] of 8 µg/mL and an MIC50 [30] of 4 µg/mL. For the same compound, the MIC90 [30] was 16 µg/mL, the MIC50 [31] was 8 µg/mL and the MIC90 [31] was 32 µg/mL. The MIC50 [32] was 8 µg/mL, the MIC90 [32] was 32 µg/mL and the Activity [33] was 0%. The Activity [34] was 0%, the MIC50 [35] was 16 µg/mL and the MIC90 [35] was 32 µg/mL. For the same compound, the Activity [36] was 0.5%, the MIC50 [37] was 8 µg/mL and the MIC90 [37] was 32 µg/mL. It also gave an MIC50 [38] of 8 µg/mL, an MIC90 [38] of 32 µg/mL and an Activity [39] of 0%. It also gave an Activity [40] of 0%, an MIC50 [41] of 8 µg/mL and an MIC90 [41] of 32 µg/mL.

With `CN(C)c1cc(NC(=O)CNC(C)(C)C)c(O)c2c1C[C@H]1C[C@H]3[C@H](N(C)C)C(O)=C(C(N)=O)C(=O)[C@@]3(O)C(O)=C1C2=O` [TIGECYCLINE] the MIC50 [1] was 0.5 µg/mL (≈ 0.854 µM), the MIC90 [1] was 8 µg/mL (≈ 13.7 µM) and the Activity [2] was 7.2%. The MIC50 [3] was 1 µg/mL (≈ 1.71 µM), the MIC90 [3] was 8 µg/mL (≈ 13.7 µM) and the Activity [4] was 8.3%. For the same compound, the Activity [5] was 9.1%, the MIC50 [6] was 1 µg/mL (≈ 1.71 µM) and the MIC90 [6] was 16 µg/mL (≈ 27.3 µM). The MIC50 [7] was 1 µg/mL (≈ 1.71 µM), the MIC90 [7] was 8 µg/mL (≈ 13.7 µM) and the Activity [8] was 16.1%. For the same compound, the MIC50 [9] was 1 µg/mL (≈ 1.71 µM), the MIC90 [9] was 8 µg/mL (≈ 13.7 µM) and the Activity [10] was 7.5%. It also gave an MIC50 [11] of 1 µg/mL (≈ 1.71 µM), an MIC90 [11] of 8 µg/mL (≈ 13.7 µM) and an MIC50 [12] of 2 µg/mL (≈ 3.41 µM). It also gave an MIC90 [12] of 8 µg/mL (≈ 13.7 µM), an Activity [13] of 10.5% and an MIC50 [14] of 1 µg/mL (≈ 1.71 µM). It also gave an MIC90 [14] of 8 µg/mL (≈ 13.7 µM), an Activity [15] of 6.1% and an MIC50 [16] of 2 µg/mL (≈ 3.41 µM). It also gave an MIC90 [16] of 8 µg/mL (≈ 13.7 µM), an MIC50 [17] of 1 µg/mL (≈ 1.71 µM) and an MIC90 [17] of 8 µg/mL (≈ 13.7 µM). For the same compound, the MIC50 [18] was 1 µg/mL (≈ 1.71 µM), the MIC90 [18] was 8 µg/mL (≈ 13.7 µM) and the Activity [19] was 6.5%.
